Publication PMC6145453 (ACS infectious diseases, 2018)
Entries after “also recorded” stand apart in the source; their conditions may differ.

Key:
rWSN-NP/Y40F virus = assay type: cell-based, influenza A virus
[1] = molecular target: NP (rY40F WSN virus infected A549 cells) (Influenza A virus, UniProt P15682, G34D/P283S/Y40F); assay type: cell-based
[2] = system: A/Brisbane/59/2007-R (oseltamivir resistant); assay: microbe, parasite or virus in culture; assay type: cell-based; settings: Influenza A virus, H1N1, A549, 24 h
influenza A/WSN/33 virus = assay type: cell-based

| SMILES | resistance phenotype of Y40F mutant virus (rWSN-NP/Y40F virus) | effect on NP oligomerization [1] | IC50 [2] [µM] | maximum virus inhibition while maintaining enough virus production for passages (influenza A/WSN/33 virus) [logs] |
| --- | --- | --- | --- | --- |
| Cc1onc(-c2ccccc2)c1C(=O)N1CCN(c2ccc([N+](=O)[O-])cc2Cl)CC1 [nucleozin, reference compound] | minor resistance phenotype | altered | – | – |
| CC(C)(C)c1ccc(C(=O)Nc2ccc(Nc3ccccc3)cc2)cc1 [S119-8, 4-(tert-butyl)-N-(4-(phenylamino)-phenyl)benzamide] | maintained resistance; also recorded: retains the same Y40F resistant phenotype | – | 3.85 | – |
| CC(C)(C)c1ccc(C(=O)Nc2ccc(NC(=O)c3ccc(C(C)(C)C)cc3)cc2)cc1 [S119, N,N′-(1,4-Phenylene)bis(4-(tert-butyl)benzamide)] | resistant phenotype | unaffected | > 50 | 3 |
